Reference: patent US8877801B2, “Compounds and compositions as selective estrogen receptor degraders” (Novartis AG, priority 2013, dated 2014)
Where two headings read alike, the source gives them in different places.

Experiments:
ER = target: T1, ER (Homo sapiens, UniProt P03372); assay: ER transcription assay (MCF7 cells), ERE-luciferase reporter; type: cell-based
T1 construct: transfected in MCF7 cells (containing endogenous ER); endogenous in cells; host or cells: MCF7 cells
T1 sequence (P03372 1-595): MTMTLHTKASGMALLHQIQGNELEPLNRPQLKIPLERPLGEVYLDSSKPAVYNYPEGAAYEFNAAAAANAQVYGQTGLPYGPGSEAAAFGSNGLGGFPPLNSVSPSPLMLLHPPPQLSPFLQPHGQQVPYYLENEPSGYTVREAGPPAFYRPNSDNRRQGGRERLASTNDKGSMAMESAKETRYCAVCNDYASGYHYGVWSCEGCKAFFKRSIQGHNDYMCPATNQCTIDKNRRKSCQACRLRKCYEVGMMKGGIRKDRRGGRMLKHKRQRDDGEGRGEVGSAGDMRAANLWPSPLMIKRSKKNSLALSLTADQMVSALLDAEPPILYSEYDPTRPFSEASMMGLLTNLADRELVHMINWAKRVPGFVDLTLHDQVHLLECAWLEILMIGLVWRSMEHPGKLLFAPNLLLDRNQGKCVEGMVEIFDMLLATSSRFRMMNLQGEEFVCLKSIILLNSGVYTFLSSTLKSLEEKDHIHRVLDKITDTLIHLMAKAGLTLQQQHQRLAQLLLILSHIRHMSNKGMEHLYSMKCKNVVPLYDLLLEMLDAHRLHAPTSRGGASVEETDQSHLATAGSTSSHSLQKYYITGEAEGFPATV
Excerpt: ER Transcription Assay (MCF7 Cells)
The ER transcription assay is a reporter assay that is based on the ability of ER to induce transcription from a luciferase reporter gene containing estrogen response elements (EREs) in the promoter/enhancer region. When the reporter gene is transfected in MCF7 cells (containing endogenous ER), transcription is reflected by the level of luciferase expression.
A day before transfection, cells are split into a T75 flask at a cell density of 300,000 cells/mL (10 mL total) and allowed to attach overnight in a humidified CO2 incubator at 37° C.
Approximately 20 ug DNA is mixed in OptiMEM (Invitrogen) to a total volume of 650 μL. Following incubation, the OptiMEM-DNA mixture is added to the OptiMEM-Lipofectin mix and incubated for 15 minutes at 37° C. The DNA-Lipofectin mixture is then added directly to the T75 flask and the flask is returned to the incubator.
After overnight incubation, compound is added to individual wells of a 96-well plate in a 10 μL volume of media at 10× concentration along with 17β estradiol whose final concentration is 0.1 nM. Normally, DMSO (used as a vehicle) is included to achieve a final concentration of 0.1% when added to the cells. Transfected cells are trypsinized, resuspended in DMEM/F12/10% charcoal-stripped serum and added to the 96-well plate at 25,000 cells/well in 90 μL of media. The plate is then returned to the incubator for 24 hours.
After incubation with compounds for 24 hours, Firefly and Renilla luciferase activities are measured to determine ER transcriptional activity. Media is removed from 96-well plates by decanting and blotting on paper towels.
One second total read time after a one second delay.
One second total read time after one second delay. If Firefly luciferase signal is high, Renilla assay must be done an hour after the Firefly assay due to incomplete squelching of Firefly signal.
(§1) The data describing the antagonist and degradation properties for the examples is compiled in table 10. The column titled MCF7 IC50 reports the inflection point of the inhibition of transcription in MCF7 cells as described above. Percentage ERα remaining reports the remaining ERα protein measured at 10 μM concentration of the ligand as described above. The column ERα IC50 reports the inflection point of the degradation in response to the ligand concentration.

ERα = target: T2, ERα (Homo sapiens, UniProt P03372); assay: ERα degradation (MCF7 cells), in-cell Western; type: cell-based; conditions: for % ERα remaining: 10 μM concentration of the ligand, MCF7 cells, 18-24 hours, relative to DMSO control
T2 construct: transfected in MCF7 cells (containing endogenous ER); endogenous in cells; host or cells: MCF7 cells
T2 sequence (P03372 1-595): T1 sequence (P03372 1-595)
Method: ERα Degradation (MCF7 Cells)
as §1

[1] = MCF7 cells, ER reporter gene, 0.1 nM 17β estradiol, 24 hours, read-out: MCF7 IC50 (inflection point of the inhibition of transcription in MCF7 cells)
[2] = comparison of bond order between the phenyl and -C(O)OH, read-out: SERD IC50 MCF7 μM (antagonist activity)
[3] = comparison of bond order between the phenyl and -C(O)OH
[4] = comparison of groups at the X position, read-out: IC50 MCF7 μM (antagonist activity)
[5] = comparison of groups at the X position

Row | SMILES | IC50 (ER; [1]) [nM] | % ERα remaining (ERα) [%] | also measured
1 | Cn1cnc(/C=C/c2ccc(Oc3c(-c4ccc(O)cc4)sc4cc(O)ccc34)cc2)c1 [Example 73, (E)-2-(4-hydroxyphenyl)-3-(4-(2-(1-methyl-1H-imidazol-4-yl)vinyl)phenoxy)-benzo[b]thiophen-6-ol] | 58 | 32 | 
2 | Cc1cc(F)ccc1-c1sc2cc(O)ccc2c1Oc1ccc(/C=C/c2nnc(C3CC3)o2)cc1 [Example 76, (E)-3-(4-(2-(5-cyclopropyl-1,3,4-oxadiazol-2-yl)vinyl)phenoxy)-2-(4-fluoro-2-methylphenyl)benzo[b]-thiophen-6-ol] | 16 | 36 | 
3 | Oc1ccc(-c2sc3cc(O)ccc3c2Oc2ccc(/C=C/c3c[nH]cn3)cc2)cc1 [Example 72, (E)-3-(4-(2-(1H-imidazol-4-yl)vinyl)phenoxy)-2-(4-hydroxyphenyl)benzo[b]thiophen-6-ol] | 125 | 47 | 
4 | O=C(O)c1ccc(Oc2c(-c3ccc(O)cc3)sc3cc(O)ccc23)cc1 [reference compound] |  |  | IC50 (ER; [2]): ≥ 10000 nM; ER Percentage remaining (degradation potential) (ERα; [3]): 57%
5 | CCCn1cnc(/C=C/c2ccc(Oc3c(-c4ccc(O)cc4)sc4cc(O)ccc34)cc2)c1 [Example 74, (E)-2-(4-hydroxyphenyl)-3-(4-(2-(1-propyl-1H-imidazol-4-yl)vinyl)phenoxy)benzo [b]thiophen-6-ol] | 108 | 41 | 
6 | O=C(O)CCCc1ccc(Oc2c(-c3ccc(O)cc3)sc3cc(O)ccc23)cc1 [reference compound] |  |  | IC50 (ER; [2]): ≥ 10000 nM; ER Percentage remaining (degradation potential) (ERα; [3]): 55%
7 | CNC(=O)/C=C/c1ccc(Oc2c(-c3ccc(C(F)(F)F)cc3)sc3cc(O)ccc23)cc1 [Example 70, (E)-3-(4-((6-hydroxy-2-(4-(trifluoromethyl)phenyl)benzo[b]thiophen-3-yl)oxy)phenyl)-N-methylacrylamide] | 269 | 41 | 
8 | CNC(=O)/C=C/c1ccc(Oc2c(-c3ccc(O)cc3)sc3cc(O)ccc23)cn1 [Example 71, (E)-3-(5-((6-hydroxy-2-(4-hydroxyphenyl)benzo[b]thiophen-3-yl)oxy)pyridin-2-yl)-N-methylacrylamide] | 53 | 39 | 
9 | O=C(O)/C=C/c1ccc(C(=O)c2c(-c3ccc(O)cc3)sc3cc(O)ccc23)cc1 [reference compound] |  |  | IC50 (ER; [4]): > 10000 nM; ER Percentage remaining (degradation potential) (ERα; [5]): 60%
10 | O=C(O)/C=C/c1ccc(-c2c(-c3ccc(O)cc3)sc3cc(O)ccc23)cc1 [reference compound] |  |  | IC50 (ER; [4]): > 10000 nM; ER Percentage remaining (degradation potential) (ERα; [5]): 76%
11 | COc1cc(Oc2c(-c3ccc(O)cc3)sc3cc(O)ccc23)ccc1/C=C/C(=O)O [Example 58, (E)-3-(4-((6-hydroxy-2-(4-hydroxyphenyl)-benzo[b]thiophen-3-yl)oxy)-2-methoxyphenyl)acrylic acid] | 5020 | 35 | 
12 | CNC(=O)/C=C/c1ccc(Oc2c(-c3ccc(O)c(F)c3)sc3cc(O)ccc23)cc1 [Example 69, (E)-3-(4-((2-(3-fluoro-4-hydroxyphenyl)-6-hydroxybenzo[b]thiophen-3-yl)oxy)phenyl)-N-methylacrylamide] | 41 | 32 | 
13 | CCCn1cncc1/C=C/c1ccc(Oc2c(-c3ccc(O)cc3)sc3cc(O)ccc23)cc1 [Example 75, (E)-2-(4-hydroxyphenyl)-3-(4-(2-(1-propyl-1H-imidazol-5-yl)vinyl)phenoxy)benzo[b] thiophen-6-ol] | 10 | 42 | 
14 | COC(=O)/C=C/c1ccc(Oc2c(-c3ccc(O)cc3)sc3c(F)c(O)c(F)cc23)cc1 [Example 37, (E)-methyl 3-(4-((5,7-difluoro-6-hydroxy-2-(4-hydroxyphenyl)-benzo[b]thiophen-3-yl)oxy)phenyl)acrylate] | 41 |  | 
15 | O=C(O)/C=C/c1ccc(Oc2c(-c3ccc(O)cc3)sc3cc(O)ccc23)cc1 [Example 2, (E)-3-(4-((6-hydroxy-2-(4-hydroxyphenyl)benzo[b]thiophen-3-yl)oxy)phenyl)acrylic acid] | 748 |  | IC50 (ER; [2]): 748 nM; IC50 (ER; [4]): 748 nM; ER Percentage remaining (degradation potential) (ERα; [3]): 41%; ER Percentage remaining (degradation potential) (ERα; [5]): 41%
16 | CCCc1nnc(/C=C/c2ccc(Oc3c(-c4ccc(F)cc4C)sc4cc(O)ccc34)cc2)o1 [Example 47, (E)-2-(4-fluoro-2-methylphenyl)-3-(4-(2-(5-propyl-1,3,4-oxadiazol-2-yl)vinyl)phenoxy)benzo [b]thiophen-6-ol] | 111 |  | 
17 | O=C(/C=C/c1ccc(Oc2c(-c3ccc(O)cc3)sc3cc(O)ccc23)cc1)NCCO [Example 65, (E)-3-(4-((6-hydroxy-2-(4-hydroxyphenyl)benzo[b]-thiophen-3-yl)oxy)phenyl)-N-(2-hydroxyethyl)acrylamide] | 55 |  | 
